# Measurements taken from paper PMC7749516, “Safety and nonclinical and clinical pharmacokinetics of PC945, a novel inhaled triazole antifungal agent” (Pharmacology Research & Perspectives, 2020).
# Values joined by “and” are separate entries in the source; they are usually repeats but may differ in a detail not shown here. Identical values can stand only once. Marks after values point to notes of the source that are not given here.
# Legend:
# [1] = First-in-human safety and tolerability (adverse events, spirometry); format: in vivo; settings: for No. of subjects with treatment‐emergent adverse events attributed to study drug / Subjects with drug-related adverse event: Cough / Subjects with drug-related adverse event: Diarrhea / Subjects with drug-related adverse event: Dizziness / Subjects with drug-related adverse event: Fatigue / Subjects with drug-related adverse event: Feces soft / Subjects with drug-related adverse event: Headache / Subjects with drug-related adverse event: Lethargy / Subjects with drug-related adverse event: Muscle spasms / Subjects with drug-related adverse event: Nausea / Subjects with drug-related adverse event: Productive cough / Subjects with drug-related adverse event: Throat tightness: N = 6
# Procedure: (§1) This PC945 first‐in‐human clinical trial (ClinicalTrials.gov Identifier: NCT02715570) was a two‐part randomized, placebo‐controlled study to assess the safety and tolerability of PC945 in both healthy subjects and subjects with mild asthma, conducted at Parexel Early Phase Clinical Unit (Harrow, UK). The study was considered single‐blind as the appearance of active and placebo doses were different, however, it was conducted in a double‐blind manner (employing separate dosing and assessment teams).
# (§2) Part one consisted of a single dose escalation study (Cohort 1) and a repeat dose study (Cohort 2) of inhaled PC945 in healthy subjects. Part two comprised a single dose study of inhaled PC945 in subjects with mild asthma (Cohort 3). The doses selected were predicted to achieve target lung concentrations above the IC90/MIC90 for A. fumigatus (based on data from a range of in vitro and in vivo systems) throughout a 24‐hour period and with a suitable safety margin based on animal toxicology data.
# Safety was evaluated based on assessments of adverse events, physical examination, vital signs, 12‐lead electrocardiogram, spirometry and clinical laboratory tests. The verbatim terms used to identify adverse events were coded using the Medical Dictionary for Regulatory Activities (version 20.1). All adverse events were mapped to system organ class and preferred term.
# Spirometry parameters (FEV1 and FVC) were measured in all subjects to evaluate the local tolerability and potential for bronchospasm of PC945 in accordance with American Thoracic Society/European Respiratory Society guidelines. Predicted values were calculated using National Health and Nutrition Examination Survey reference equations. ^18 , ^19
# CYP3A4/5 = experiment: CYP inhibition in pooled human liver microsomes; format: in vitro ADME
# Procedure: Microsomal reactions were terminated by adding 100 μL of cold (4°C) methanol containing appropriate internal standard. Aliquots (150 μL) of each sample were centrifuged and the supernatant was used for substrate analysis by ultra‐performance liquid chromatography with tandem mass spectrometry (UPLC‐MS/MS) on the day of incubations.
# Change in substrate concentration was measured to determine the extent of CYP‐isoform inhibition. The 30‐minute preincubations were performed to determine whether there was time‐dependent inhibition of any CYP isoform (CYP1A2, 2B6, 2C8, 2C9, 2C19, 2D6, and 3A4/5). Untreated control contained only solvent, dimethyl sulfoxide (≤0.5% [v/v]).
# A. fumigatus infection = system: A. fumigatus infection; parameters: method as in PMID 31263150; settings: in vitro human alveolus bilayer model; cited from earlier work
# [2] = Clinical pharmacokinetics, single ascending inhaled dose in healthy subjects (Cohort 1); format: in vivo, human; settings: for AUC0–24h / C max / AUC0–∞ / t ½: geometric mean (CV%); for t max: median (range), postend of inhalation
# Procedure: as §1, §2
# In Cohort 1, 11 healthy subjects (three males and eight females; mean age: 48.5 years, mean weight: 65.32 kg, mean body mass index [BMI]: 23.62 kg/m^2), attended the single ascending dose study. Eight healthy subjects started the study in which two subjects were randomized to each of the four ascending dose treatment sequences (Table 1); two subjects withdrew due to adverse events unrelated to study medication and both were replaced. One of the replacement subjects subsequently withdrew from the study for personal reasons and was replaced by another subject (Figure 1). Overall, six subjects each received three of four doses of PC945 (0.5, 2, 5, and 10 mg) and one dose of placebo. These doses were administered with a minimum of 13 days interval to allow for washout.
# Serial blood samples were collected to determine plasma PC945 concentrations. For the single dose study in healthy subjects and in subjects with mild asthma, blood samples were collected predose and at 0.25, 0.5, 1, 2, 4, 6, 8, 24, 30, and 48 hours postend of inhalation and at the follow‐up visit. For the repeat dose study, blood samples were collected (a) predose and at 0.25, 0.5, 1, 2, 4, 6, 8, 10, 12, and 24 hours postend of inhalation on Days 1 and 7, and 30 and 48 hours on Day 7; (b) predose on Days 5 and 6; (c) at the follow‐up visit.
# [3] = Cohort 1 healthy, single dose 0.5 mg
# [4] = Cohort 1 healthy, single dose 2 mg
# [5] = Cohort 1 healthy, single dose 5 mg
# [6] = Cohort 1 healthy, single dose 10 mg
# [7] = Cohort 2 healthy, 5 mg once daily for 7 days
# [8] = Cohort 3 mild asthma, single dose 5 mg
# [9] = substrate midazolam, 30‐minute preincubation
structure (smiles),measurement,setting,value
Cc1cc(N2CCN(c3ccc(C(=O)Nc4ccc(F)cc4)cc3)CC2)ccc1OC[C@@H]1CO[C@@](Cn2cncn2)(c2ccc(F)cc2F)C1 [PC945],No. of subjects with treatment‐emergent adverse events attributed to study drug,[1]; [3],1 (16.67) n (%)
same,Subjects with drug-related adverse event: Cough,[1]; [3],0 n (%)
same,Subjects with drug-related adverse event: Diarrhea,[1]; [3],0 n (%)
same,Subjects with drug-related adverse event: Dizziness,[1]; [3],0 n (%)
same,Subjects with drug-related adverse event: Fatigue,[1]; [3],1 (16.67) n (%)
same,Subjects with drug-related adverse event: Feces soft,[1]; [3],0 n (%)
same,Subjects with drug-related adverse event: Headache,[1]; [3],0 n (%)
same,Subjects with drug-related adverse event: Lethargy,[1]; [3],0 n (%)
same,Subjects with drug-related adverse event: Muscle spasms,[1]; [3],0 n (%)
same,Subjects with drug-related adverse event: Nausea,[1]; [3],0 n (%)
same,Subjects with drug-related adverse event: Productive cough,[1]; [3],0 n (%)
same,Subjects with drug-related adverse event: Throat tightness,[1]; [3],0 n (%)
same,No. of subjects with treatment‐emergent adverse events attributed to study drug,[1]; [4],0 n (%)
same,Subjects with drug-related adverse event: Cough,[1]; [4],0 n (%)
same,Subjects with drug-related adverse event: Diarrhea,[1]; [4],0 n (%)
same,Subjects with drug-related adverse event: Dizziness,[1]; [4],0 n (%)
same,Subjects with drug-related adverse event: Fatigue,[1]; [4],0 n (%)
same,Subjects with drug-related adverse event: Feces soft,[1]; [4],0 n (%)
same,Subjects with drug-related adverse event: Headache,[1]; [4],0 n (%)
same,Subjects with drug-related adverse event: Lethargy,[1]; [4],0 n (%)
same,Subjects with drug-related adverse event: Muscle spasms,[1]; [4],0 n (%)
same,Subjects with drug-related adverse event: Nausea,[1]; [4],0 n (%)
same,Subjects with drug-related adverse event: Productive cough,[1]; [4],0 n (%)
same,Subjects with drug-related adverse event: Throat tightness,[1]; [4],0 n (%)
same,No. of subjects with treatment‐emergent adverse events attributed to study drug,[1]; [5],2 (33.33) n (%)
same,Subjects with drug-related adverse event: Cough,[1]; [5],0 n (%)
same,Subjects with drug-related adverse event: Diarrhea,[1]; [5],0 n (%)
same,Subjects with drug-related adverse event: Dizziness,[1]; [5],1 (16.67) n (%)
same,Subjects with drug-related adverse event: Fatigue,[1]; [5],0 n (%)
same,Subjects with drug-related adverse event: Feces soft,[1]; [5],1 (16.67) n (%)
same,Subjects with drug-related adverse event: Headache,[1]; [5],1 (16.67) n (%)
same,Subjects with drug-related adverse event: Lethargy,[1]; [5],1 (16.67) n (%)
same,Subjects with drug-related adverse event: Muscle spasms,[1]; [5],1 (16.67) n (%)
same,Subjects with drug-related adverse event: Nausea,[1]; [5],1 (16.67) n (%)
same,Subjects with drug-related adverse event: Productive cough,[1]; [5],0 n (%)
same,Subjects with drug-related adverse event: Throat tightness,[1]; [5],0 n (%)
same,No. of subjects with treatment‐emergent adverse events attributed to study drug,[1]; [6],2 (33.33) n (%)
same,Subjects with drug-related adverse event: Cough,[1]; [6],0 n (%)
same,Subjects with drug-related adverse event: Diarrhea,[1]; [6],1 (16.67) n (%)
same,Subjects with drug-related adverse event: Dizziness,[1]; [6],1 (16.67) n (%)
same,Subjects with drug-related adverse event: Fatigue,[1]; [6],0 n (%)
same,Subjects with drug-related adverse event: Feces soft,[1]; [6],0 n (%)
same,Subjects with drug-related adverse event: Headache,[1]; [6],1 (16.67) n (%)
same,Subjects with drug-related adverse event: Lethargy,[1]; [6],0 n (%)
same,Subjects with drug-related adverse event: Muscle spasms,[1]; [6],0 n (%)
same,Subjects with drug-related adverse event: Nausea,[1]; [6],1 (16.67) n (%)
same,Subjects with drug-related adverse event: Productive cough,[1]; [6],0 n (%)
same,Subjects with drug-related adverse event: Throat tightness,[1]; [6],0 n (%)
same,No. of subjects with treatment‐emergent adverse events attributed to study drug,[1]; [7],2 (33.33) n (%)
same,Subjects with drug-related adverse event: Cough,[1]; [7],0 n (%)
same,Subjects with drug-related adverse event: Diarrhea,[1]; [7],0 n (%)
same,Subjects with drug-related adverse event: Dizziness,[1]; [7],0 n (%)
same,Subjects with drug-related adverse event: Fatigue,[1]; [7],0 n (%)
same,Subjects with drug-related adverse event: Feces soft,[1]; [7],0 n (%)
same,Subjects with drug-related adverse event: Headache,[1]; [7],1 (16.67) n (%)
same,Subjects with drug-related adverse event: Lethargy,[1]; [7],0 n (%)
same,Subjects with drug-related adverse event: Muscle spasms,[1]; [7],0 n (%)
same,Subjects with drug-related adverse event: Nausea,[1]; [7],1 (16.67) n (%)
same,Subjects with drug-related adverse event: Productive cough,[1]; [7],0 n (%)
same,Subjects with drug-related adverse event: Throat tightness,[1]; [7],0 n (%)
same,No. of subjects with treatment‐emergent adverse events attributed to study drug,[1]; [8],0 n (%)
same,Subjects with drug-related adverse event: Cough,[1]; [8],0 n (%)
same,Subjects with drug-related adverse event: Diarrhea,[1]; [8],0 n (%)
same,Subjects with drug-related adverse event: Dizziness,[1]; [8],0 n (%)
same,Subjects with drug-related adverse event: Fatigue,[1]; [8],0 n (%)
same,Subjects with drug-related adverse event: Feces soft,[1]; [8],0 n (%)
same,Subjects with drug-related adverse event: Headache,[1]; [8],0 n (%)
same,Subjects with drug-related adverse event: Lethargy,[1]; [8],0 n (%)
same,Subjects with drug-related adverse event: Muscle spasms,[1]; [8],0 n (%)
same,Subjects with drug-related adverse event: Nausea,[1]; [8],0 n (%)
same,Subjects with drug-related adverse event: Productive cough,[1]; [8],0 n (%)
same,Subjects with drug-related adverse event: Throat tightness,[1]; [8],0 n (%)
same,Deaths or serious adverse events,[1]; all cohorts,no deaths or serious adverse events
same,Changes in lung function,[1]; healthy subjects,No clinically significant changes in lung function
same,Tolerability,"[1]; single doses up to 10 mg and 5 mg daily for 7 days in healthy subjects, single 5 mg in mild asthma",well tolerated
same,Acute bronchospasm or significant change in lung function (>15% change from baseline),"[1]; subjects with mild asthma, single 5 mg",no evidence of acute bronchospasm or significant change in lung function
same,Irritancy,"[1]; subjects with mild asthma, single dose 5 mg",No evidence of irritancy
same,Shift in potency for CYP3A4/5 following preincubation,CYP3A4/5,fivefold
same,"IC50, CYP3A4/5",CYP3A4/5; microsomes,0.168 µg/mL
same,IC50,CYP3A4/5; [9],17 nM
same,"IC50, CYP3A4/5",CYP3A4/5; [9],0.0116 µg/mL
same,IC50,"CYP3A4/5; substrate midazolam, without preincubation, pooled human liver microsomes",85 nM
same,Effect on A. fumigatus infection,A. fumigatus infection,inhibit A. fumigatus infection
same,Increase in C max for a doubling in dose,"[2]; single doses 0.5 to 10 mg, 90% CI 1.54, 2.02",1.77 fold
same,Increase in AUC0–24h for a doubling in dose,"[2]; single doses 0.5 to 10 mg, 90% CI 1.64, 2.15",1.88 fold
same,AUC0–24h,[2]; single inhaled 0.5 mg,726 (73.4) ^a pg•h/mL
same,C max,[2]; single inhaled 0.5 mg,54.7 (64.8) ^a pg/mL
same,AUC0–∞,"[2]; single inhaled 0.5 mg, n = 2",1480 (7.41) ^b pg•h/mL
same,t ½,"[2]; single inhaled 0.5 mg, n = 2, considered unreliable",36.9 (24.1) ^b h
same,t max,[2]; single inhaled 0.5 mg,1 h and 1.10 (0.250‐2.10) ^a h
same,AUC0–24h,[2]; single inhaled 2 mg,1990 (102) pg•h/mL
same,C max,[2]; single inhaled 2 mg,128 (107) pg/mL
same,AUC0–∞,"[2]; single inhaled 2 mg, n = 3",3140 (175) ^c pg•h/mL
same,t ½,"[2]; single inhaled 2 mg, n = 3, considered unreliable",27.9 (58.4) ^c h
same,t max,[2]; single inhaled 2 mg,4 h and 4.11 (2.09‐8.11) h
same,AUC0–24h,[2]; single inhaled 5 mg,5440 (48.0) pg•h/mL
same,C max,[2]; single inhaled 5 mg,322 (51.1) pg/mL
same,t ½,"[2]; single inhaled 5 mg, n = 4, considered unreliable",37.3 (36.4) ^d h
same,t max,[2]; single inhaled 5 mg,5 h and 5.10 (2.08‐8.12) h
same,C max,[2]; single inhaled 10 mg,619 (39.1) pg/mL
same,t ½,"[2]; single inhaled 10 mg, considered unreliable",110 (16.5) h
same,t max,[2]; single inhaled 10 mg,2 h and 2.13 (0.330‐6.15) h
